Inhibition and IC50 data for 31 molecules are collected here from ChEMBL document CHEMBL4680269, “N-benzylpiperidinol derivatives as novel USP7 inhibitors: Structure-activity relationships and X-ray crystallographic studies” (Eur J Med Chem, 2020).

Active and inactive are the calls of the source. The rule behind the calls is not given here.

The first test addresses T1, Ubiquitin carboxyl-terminal hydrolase 7 (Homo sapiens, UniProt Q93009). Put plainly: Inhibition of recombinant human N-terminal His6-tagged full length USP7 expressed in baculovirus infected Sf21 cells at 10 uM using monoubiquitinated ubiquitin-rhodamine as substrate incubated for 30 mins followed by Ub-Rho addition and measured after 2 hrs by spectrophotometry relative to control. Particulars: time 2.5 hrs.
Target sequence in this assay (Q93009 whole entry, looked up): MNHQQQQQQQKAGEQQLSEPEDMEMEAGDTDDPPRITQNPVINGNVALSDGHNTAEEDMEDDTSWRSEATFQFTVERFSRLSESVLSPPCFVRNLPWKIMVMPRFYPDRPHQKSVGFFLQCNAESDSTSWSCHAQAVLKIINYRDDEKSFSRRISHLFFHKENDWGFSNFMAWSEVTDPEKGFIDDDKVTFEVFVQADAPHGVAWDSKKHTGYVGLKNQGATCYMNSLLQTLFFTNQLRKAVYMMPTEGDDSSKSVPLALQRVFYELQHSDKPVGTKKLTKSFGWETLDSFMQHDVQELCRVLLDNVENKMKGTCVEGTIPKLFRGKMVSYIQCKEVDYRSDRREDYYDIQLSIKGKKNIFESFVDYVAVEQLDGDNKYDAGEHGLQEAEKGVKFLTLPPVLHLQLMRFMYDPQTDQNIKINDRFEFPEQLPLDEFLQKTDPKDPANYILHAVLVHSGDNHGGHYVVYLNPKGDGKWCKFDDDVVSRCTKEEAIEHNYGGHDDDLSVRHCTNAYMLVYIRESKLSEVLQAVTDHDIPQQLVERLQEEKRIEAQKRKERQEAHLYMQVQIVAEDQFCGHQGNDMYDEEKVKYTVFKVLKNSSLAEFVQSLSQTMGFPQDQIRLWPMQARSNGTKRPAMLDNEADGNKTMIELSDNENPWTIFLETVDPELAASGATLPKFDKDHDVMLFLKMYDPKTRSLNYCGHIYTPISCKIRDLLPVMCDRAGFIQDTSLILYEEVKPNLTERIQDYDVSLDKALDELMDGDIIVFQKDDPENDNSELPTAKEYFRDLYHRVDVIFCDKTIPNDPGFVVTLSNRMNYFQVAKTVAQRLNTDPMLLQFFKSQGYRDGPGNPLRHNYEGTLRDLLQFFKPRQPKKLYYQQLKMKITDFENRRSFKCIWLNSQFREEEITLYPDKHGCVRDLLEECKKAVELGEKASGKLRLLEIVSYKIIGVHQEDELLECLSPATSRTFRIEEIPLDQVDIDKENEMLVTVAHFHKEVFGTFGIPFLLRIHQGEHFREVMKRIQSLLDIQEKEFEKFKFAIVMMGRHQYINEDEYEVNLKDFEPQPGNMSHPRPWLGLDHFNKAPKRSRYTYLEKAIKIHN
Regarding `O=c1c2cnn(-c3ccc(F)cc3)c2ncn1CC1(O)CCN(c2ncccn2)CC1`, the inhibition (usually the drop in the measured response relative to a control, in per cent) was “inactive”.

As to `O=c1c2cnn(-c3ccc(F)cc3)c2ncn1CC1(O)CCN(c2ncccc2F)CC1`, the inhibition entry was “inactive”.

Regarding `O=c1c2cnn(-c3ccc(F)cc3)c2ncn1CC1(O)CCN(c2nccs2)CC1`, the inhibition entry was “inactive”.

In the case of `O=c1c2cnn(-c3ccc(F)cc3)c2ncn1CC1(O)CCN(c2ccc3ccccc3n2)CC1`, the inhibition entry was “inactive”.

`O=Cc1cccc(N2CCC(O)(Cn3cnc4c(cnn4-c4ccc(F)cc4)c3=O)CC2)n1`: the inhibition entry was “inactive”.

Consider `O=c1c2cnn(-c3ccc(F)cc3)c2ncn1CC1(O)CCN(c2ncccc2I)CC1`, for which the inhibition was 32%.

On to `O=c1c2cnn(-c3ccc(F)cc3)c2ncn1CC1(O)CCN(c2ccccn2)CC1`, for which the inhibition entry was “inactive”.

As to `O=c1c2cnn(-c3ccc(F)cc3)c2ncn1CC1(O)CCN(c2cccc(C(F)(F)F)n2)CC1`, the inhibition result was “inactive”.

`N#Cc1cccnc1N1CCC(O)(Cn2cnc3c(cnn3-c3ccc(F)cc3)c2=O)CC1`: the inhibition entry is “inactive”.

In the case of `O=Cc1cccnc1N1CCC(O)(Cn2cnc3c(cnn3-c3ccc(F)cc3)c2=O)CC1`, the inhibition result was “inactive”.

Turning to `O=c1c2cnn(-c3ccc(F)cc3)c2ncn1CC1(O)CCN(c2ncccc2Br)CC1`, the inhibition is 32%.

With `CCOC(=O)c1csc(N2CCC(O)(Cn3cnc4c(cnn4-c4ccc(F)cc4)c3=O)CC2)n1`, the inhibition entry is “inactive”.

Regarding `O=c1c2cnn(-c3ccc(F)cc3)c2ncn1CC1(O)CCN(c2ncccc2Cl)CC1`, the inhibition amounted to 32%.

In another test the target is T1, Ubiquitin carboxyl-terminal hydrolase 7. Put plainly: Inhibition of recombinant human N-terminal His6-tagged full length USP7 expressed in baculovirus infected Sf21 cells using monoubiquitinated ubiquitin-rhodamine as substrate incubated for 30 mins followed by Ub-Rho addition and measured after 2 hrs by spectrophotometry.
Details: not given
Target sequence in this assay (Q93009 whole entry): as the sequence (Q93009 whole entry, looked up) above
Take `O=c1c2cnn(-c3ccc(F)cc3)c2ncn1CC1(O)CCN(Cc2ccc(Cl)cc2)CC1`: the IC50 (as a rule, the concentration at which inhibition is half-maximal) turned out to be 8 µM.

In the case of `COC(=O)c1ccc(CN2CCC(O)(Cn3cnc4c(-c5ccc(CNC(C)=O)cc5)n(C)nc4c3=O)CC2)c(Cl)c1`, the IC50 was determined as 0.121 µM.

For `COC(=O)c1ccc(CN2CCC(O)(Cn3cnc4c(Br)n(C)nc4c3=O)CC2)c(Cl)c1`, the IC50 came out at 0.157 µM.

As to `COC(=O)c1ccc(CN2CCC(O)(Cn3cnc4c(cnn4-c4ccc(F)cc4)c3=O)CC2)cc1`, the IC50 stood at 4.5 µM.

For the molecule `COC(=O)c1ccc(CN2CCC(O)(Cn3cnc4c(cnn4-c4ccc(F)cc4)c3=O)CC2)c(Cl)c1`, the IC50 was found to be 0.8 µM.

With `O=c1c2cnn(-c3ccc(F)cc3)c2ncn1CC1(O)CCN(Cc2ccccc2F)CC1`, the IC50 is 9.8 µM.

For the molecule `COC(=O)c1ccc(CN2CCC(O)(Cn3cnc4c(-c5ccc(CNC(=O)OC(C)(C)C)cc5)n(C)nc4c3=O)CC2)c(Cl)c1`, the IC50 was found to be 0.209 µM.

On to `O=c1c2cnn(-c3ccc(F)cc3)c2ncn1CC1(O)CCN(Cc2ccc([N+](=O)[O-])cc2)CC1`, for which the IC50 is 9 µM.

For the molecule `O=c1c2cnn(-c3ccc(F)cc3)c2ncn1CC1(O)CCN(Cc2ccccc2Br)CC1`, the IC50 stood at 3.1 µM.

Take `COC(=O)c1ccc(CN2CCC(O)(Cn3cnc4c(cnn4-c4ccc(F)cc4)c3=O)CC2)c(Br)c1`: the IC50 was 0.9 µM.

With `O=c1c2cnn(-c3ccc(F)cc3)c2ncn1CC1(O)CCN(Cc2ccccc2Cl)CC1`, the 50% inhibitory concentration (IC50) stood at 3.4 µM.

Take `N#Cc1cc(Cl)ccc1CN1CCC(O)(Cn2cnc3c(cnn3-c3ccc(F)cc3)c2=O)CC1`: the IC50 is 11.4 µM.

As for `O=c1c2cnn(-c3ccc(F)cc3)c2ncn1CC1(O)CCN(Cc2ccc(Br)cc2Cl)CC1`, the IC50 is 1.9 µM.

`N#Cc1ccccc1CN1CCC(O)(Cn2cnc3c(cnn3-c3ccc(F)cc3)c2=O)CC1`: the IC50 worked out at 8.1 µM.

For the molecule `O=c1c2cnn(-c3ccc(F)cc3)c2ncn1CC1(O)CCN(Cc2ccc(Br)cc2)CC1`, the IC50 was 6.7 µM.

Consider `O=c1c2cnn(-c3ccc(F)cc3)c2ncn1CC1(O)CCN(Cc2ccc(Cl)cc2Cl)CC1`, for which the IC50 was 3.3 µM.

Regarding `O=c1c2cnn(-c3ccc(F)cc3)c2ncn1CC1(O)CCN(Cc2ccc(F)cc2Cl)CC1`, the IC50 turned out to be 1.6 µM.

Take `COC(=O)c1ccc(CN2CCC(O)(Cn3cnc4c(cnn4-c4ccc(F)cc4)c3=O)CC2)c(F)c1`: the IC50 was found to be 0.8 µM.
